Measured values taken from PMC9964323, “New Titanocene (IV) Dicarboxylates with Potential Cytotoxicity: Synthesis, Structure, Stability and Electrochemistry” (International Journal of Molecular Sciences, 2023).
Entries after “also recorded” stand apart in the source; their conditions may differ.

Key:
[1] = Cyclic voltammetry (reduction potentials); format: physicochemical; details: for Ered, first reduction potential: first value of cell; for Ered, first reduction potential / Ered, second reduction potential: DMF, 0.05 M Bu4NClO4, glass-carbon electrode, vs Ag/AgCl/KCl (sat.), 100 mV/s, C = 1 × 10^−1 mol L^−1; for Ered, second reduction potential: second value of cell
Protocol: It was shown that, as expected, the reduction potentials of Ti (IV) for all compounds depend on the structure of the carboxylate-containing ligand, in particular, the presence of donor and acceptor substituents in the ligand benzene ring (Table 3).
Cyclic Voltammetry experiments were conducted using an IPC Pro M potentiostat (Russia) with cyclic voltammetry (CV) and rotating disk electrode (RDE) techniques. Glass-carbon (d = 2 mm) disks were used as the working electrodes, 0.05 M Bu4NClO4 solution in DMF served as the supporting electrolyte, and Ag/AgCl/KCl (sat.) was used as the reference electrode. The potential scan rates were 100 mV/s. Samples were dissolved in the predeaerated solvent.

[2] = Stability in aqueous media (hydrolysis followed by optical absorption at 330 nm); format: physicochemical; details: 0.4 mM, 10% DMSO 90% water
Excerpt: The decrease in the concentration of the coordination compound was estimated from the decrease in the optical absorption at a wavelength of 330 nm. We considered it inappropriate to use the optical absorption maximum in the range of 230–300 nm for similar purposes because the absorption of the initial coordination compound, free carboxylate-containing ligands, and cyclopentadiene may overlap in this region.
Stability in aqueous media was studied by recording the full optical absorption spectra of solutions of the studied titanocene derivatives with an initial concentration of 0.4 mM in the solvent system (10% DMSO 90% water) at different time intervals. The change in the concentration of the studied compound was evaluated by the decrease in optical absorption at a wavelength of 330 nm. Full absorption spectra of studied compounds are presented as Figure S7 in the Supplementary Materials.

[3] = system: metastatic breast and colon tumors; details: phase II clinical trials, dose of 240 mg/m^2; cited from earlier work
[4] = parameters: method as in PMID 9704729, PMID 9829732; details: phase I clinical trials; cited from earlier work
[5] = system: platinum-resistant cell lines; parameters: method as in PMID 8499130; details: cited from earlier work
[6] = system: Ehrlich ascites carcinoma; parameters: method as in PMID 111586; details: cited from earlier work
[7] = system: adenocarcinoma of the lung, breast, and gastrointestinal tract; parameters: method as in PMID 111586, PMID 7988618; details: cited from earlier work

Row | Compound | Ered, first reduction potential [1] [V] | Ered, second reduction potential [1] [V] | hydrolysis rate / stability in aqueous media [2] | further results
1 | O=C([O-])c1ccccc1.O=C([O-])c1ccccc1.[Ti+4].c1cc[cH-]c1.c1cc[cH-]c1 [2a, bis(η^5-cyclopentadienyl)bis(benzoato)titanium(IV)] | −0.85 | −2.17 |  | 
2 | [N-]=[N+]=Nc1ccc(C(=O)[O-])cc1.[N-]=[N+]=Nc1ccc(C(=O)[O-])cc1.[Ti+4].c1cc[cH-]c1.c1cc[cH-]c1 [2c, bis(η^5-cyclopentadienyl)bis(4-azidobenzoato)titanium(IV)] | −0.78 | −2.01 |  | 
3 | O=C([O-])c1cccc(F)c1.O=C([O-])c1cccc(F)c1.[Ti+4].c1cc[cH-]c1.c1cc[cH-]c1 [2d, bis(η^5-cyclopentadienyl)bis(3-fluorobenzoato)titanium(IV)] | −0.79 | −2.05 |  | 
4 | O=C([O-])c1c(F)c(F)c(F)c(F)c1F.O=C([O-])c1c(F)c(F)c(F)c(F)c1F.[Ti+4].c1cc[cH-]c1.c1cc[cH-]c1 [2e, bis(η^5-cyclopentadienyl)bis(pentafluorobenzoato)titanium(IV)] | −0.57 | −1.81 | hydrolyzed more slowly than compound 2b; also recorded: slower | half-life time in water [2]: approximately 3 h
5 | CC(=O)Oc1ccccc1C(=O)[O-].CC(=O)Oc1ccccc1C(=O)[O-].[Ti+4].c1cc[cH-]c1.c1cc[cH-]c1 [2f, bis(η^5-cyclopentadienyl)bis(2-acetoxybenzoato)titanium(IV)] | −0.81 | −2.11 |  | 
6 | [Cl-].[Cl-].[Ti+4].c1cc[cH-]c1.c1cc[cH-]c1 [Cp2TiCl2, Titanocene dichloride] | −0.62 | −1.85 | lower stability in aqueous media compared to the carboxylate-containing analogues | therapeutic effect [3]: did not show a therapeutic effect; dose-dependent side effects [4]: mild nephrotoxicity, fatigue, and bilierubinimia; cytotoxicity [5]: pronounced cytotoxicity; cure ([6]; Ehrlich ascites carcinoma inoculated into mice): 80%; side effects associated with drug toxicity ([6]; Ehrlich ascites carcinoma inoculated into xenograft mice): no noticeable side effects; cytotoxicity [7]: pronounced cytotoxicity
7 | bis(η^5-cyclopentadienyl)bis(4-benzoxybenzoato)titanium(IV) [2b] | −0.88 | −2.21 |  | half-life time in water [2]: approximately 3 h
8 | bis(η^5-cyclopentadienyl)salicylatotitanium(IV) [2g] | −0.90 |  | Hydrolysis proceeds slowly | Reversibility of reduction ([1]; CV in DMF): reversibly reduced and oxidized and rev
